Assay results published in patent publication US20260007639A1, “COMPOUNDS FOR THE TREATMENT OF NEUROMUSCULAR DISORDERS” (NMD PHARMA A/S, priority 2017, published 2026).
Read-outs that look alike come from different tables or passages of the source.

Legend:
CIC-1 channels = target: T1, CIC-1 channels (Rattus norvegicus, UniProt P35524); experiment: Electrophysiological measurement of compound inhibition of CIC-1 (Gm) in rat soleus muscle fibres: EC50 (Table 7)
T1 sequence (P35524 1-994): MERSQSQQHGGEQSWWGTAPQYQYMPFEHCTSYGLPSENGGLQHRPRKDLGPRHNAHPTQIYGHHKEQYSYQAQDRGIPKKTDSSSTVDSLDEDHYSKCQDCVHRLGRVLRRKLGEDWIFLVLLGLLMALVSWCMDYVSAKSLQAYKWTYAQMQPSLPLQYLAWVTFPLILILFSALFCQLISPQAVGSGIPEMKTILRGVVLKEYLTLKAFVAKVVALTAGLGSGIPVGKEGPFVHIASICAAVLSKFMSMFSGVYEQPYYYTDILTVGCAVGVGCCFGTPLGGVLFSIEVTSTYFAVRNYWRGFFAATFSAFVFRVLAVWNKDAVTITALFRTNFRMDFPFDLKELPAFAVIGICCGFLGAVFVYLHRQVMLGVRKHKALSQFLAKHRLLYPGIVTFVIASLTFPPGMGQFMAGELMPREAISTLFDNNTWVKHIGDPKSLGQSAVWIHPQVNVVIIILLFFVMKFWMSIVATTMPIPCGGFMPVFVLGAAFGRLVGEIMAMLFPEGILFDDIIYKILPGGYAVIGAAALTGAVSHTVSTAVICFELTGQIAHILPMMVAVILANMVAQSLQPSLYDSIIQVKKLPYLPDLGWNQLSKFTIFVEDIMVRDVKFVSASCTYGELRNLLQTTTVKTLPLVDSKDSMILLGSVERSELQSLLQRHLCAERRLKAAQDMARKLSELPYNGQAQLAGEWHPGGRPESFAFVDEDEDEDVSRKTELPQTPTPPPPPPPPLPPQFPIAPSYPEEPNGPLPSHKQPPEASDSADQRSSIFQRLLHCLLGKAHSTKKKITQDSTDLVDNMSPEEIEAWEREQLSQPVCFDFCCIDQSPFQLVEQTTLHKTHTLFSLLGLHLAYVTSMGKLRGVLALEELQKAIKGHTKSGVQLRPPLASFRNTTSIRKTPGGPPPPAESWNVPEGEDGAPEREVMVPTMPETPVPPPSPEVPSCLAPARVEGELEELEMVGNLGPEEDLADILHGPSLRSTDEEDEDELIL

rat soleus muscles [1] = experiment: Recovery of force in isolated rat soleus nerve-muscle preparations after 115 nM tubocurarine, 50 μM compound (Table 8); details: 40 mins exposure
Procedure: Force traces from a representative muscle stimulated to contract in 1) control condition before addition of neuromuscular blocking agent, 2) the force response to stimulation after 90 minutes incubation with Tubocurarine. […] The traces presented in FIG. 12A (1, 2, 3), correspond to the dotted lines in FIG. 12B, respectively.
Recovery of force is quantified as the percentage of the force prior to tubocurarine that is recovered by the compound.
The current invention relates to compounds that inhibit CIC-1 ion channels and increase muscle excitability and thereby improve muscle function in clinical conditions where muscle activation is failing. Such conditions result in loss of contractile function of skeletal muscle, weakness and excessive fatigue. In this series of experiments the compounds were tested for their ability to restore contractile function of isolated rat muscle when the neuromuscular transmission had been compromised akin to neuromuscular disorders.
Experimentally, soleus muscles from 4-5 wk old rats were isolated with the motor nerve remaining attached. The nerve-muscle preparations were mounted in experimental setups that enabled electrical stimulation of the motor nerve. Stimulation of the motor nerve led to activation of the muscle fibres and ensuing force production that was recorded.
After mounting the nerve-muscle preparation in the experimental setup, the contractile function of the muscle was initially assessed under the control conditions (FIG. 2A). […] The experimental condition mimics the failing neuromuscular transmission in a range of neuromuscular disorders. After addition of tubocurarine the contractile force declined over the next 90 mins to 10-50% of the control force. 50 μM of the test compound was then added and the contractile force recovered despite the continued presence of tubocurarine. To quantify the ability of the compound to restore force the percentage of the initial force that was restored was determined after 40 mins of compound exposure (FIG. 2B) and the point increase is reported in Table 8.

human CIC-1 channels = target: T2, human CIC-1 channels (Homo sapiens, UniProt P35523); experiment: Automated patch-clamp on human CIC-1 expressed in CHO cells: shift of half activation voltage ΔV1/2; format: cell-based; details: compound in intracellular solution vs control cell patches; CHO cells expressing human CIC-1
T2 construct: host or cells: CHO (Chinese hamster ovary) cells constitutively expressing human ClC-1
Procedure: FIGS. 13A-13B: FIG. 13A illustrates the voltage protocol used to evoke currents in whole cell patches of CHO cells expressing human CIC-1 channels.
Experiments were performed using an automated patch clamp system that allowed high throughput testing of whole cell patches together with both intracellular and extracellular addition of compound.
Automated whole cell patch clamp experiments were performed with the Qpatch 16 system (Sophion Bioscience, Ballerup, Denmark) at room temperature. Data acquisition and analysis were performed in the Qassay software (ver. 5.6, Odense).
To evoke CIC-1 currents in whole cell patches, the membrane potential was initially stepped from a holding potential of −30 mV to +60 mV for 100 ms and then to various test voltages (sweeps) ranging from +120 mV to −140 mV in steps of 20 mV for 300 ms. To obtain tail currents, the membrane potential was stepped to −100 mV after each test voltage for 300 ms and then relaxed to −30 mV for 2 sec between sweeps (FIG. 3).
I/V relationships for whole cell instant and steady state current amplitudes were obtained by plotting average current densities at the beginning and at the end of the 300 ms step against the membrane potential (FIG. 4).
In order to determine the relative overall open probability (Po), the instantaneous tail currents were normalized to the maximal tail current obtained following the most positive voltage step and plotted against the test voltage. Plots of normalized tail currents from each whole cell patch were then fitted to a Boltzmann function allowing determination of half activation voltages (V1/2, FIG. 5).
For automated patch clamp experiments extracellular solutions contained: 2 mM CaCl2), 1 mM MgCl2, 10 mM HEPES, 4 mM KCl, 145 mM NaCl, 10 mM Glucose, pH adjusted to 7.4 with NaOH (2 M). Osmolality adjusted to ˜320 using sucrose.
Intracellular solutions contained: 80 mM CsF, 60 mM CsCl, 5/1 mM KOH/EGTA, 10 mM HEPES, 10 mM NaCl, pH adjusted to 7.2 with NaOH (2 M). Osmolality adjusted to ˜320 mOsm using sucrose.
Cells used in patch clamp experiments were Chinese hamster ovary cells (CHO) constitutively expressing human CIC-1 channels. The amino acid sequence encoded by the cDNA used to create this cell line was identical to the translated sequence for GenBank accession number NM_000083.2. Cells were produced by Charles River (Catalogue CT6175, Cleveland OH, USA) in a cryopreserved format. Experiments were performed on the cells directly after thawing (3×10^6 cells used in each experiment).
To evaluate the compound effect on CIC-1, when applied directly to the intracellular side of the cell membrane, the half activation voltage, V1/2, was determined from whole cell patches with compound added to the intracellular solution and then compared to V1/2 determined from control cell patches with only vehicle added to the intracellular solution. Additionally, the effect of extracellular added compound was evaluated by determine V1/2 and steady state current amplitudes before and after exchanging the extracellular solution to contain compound.
The difference in half activation voltage of CIC-1 channels, ΔV1/2, was determined as the difference between the cell patches treated intracellularly with compound and control cells patches and is reported in Table 4 below. A positive shift in ΔV 1/2 is reflecting CIC-1 channel inhibition by the tested compound. P-values of <0.05 is considered significant.

rat soleus muscles [2] = experiment: Recovery of nerve-stimulated force in isolated rat soleus muscles exposed to sub-maximal tubocurarine (Table 1); details: for 500 μM % change after addition (AUC force): 500 μM compound
Procedure: The motor nerve was stimulated every 10 min for 2 s with 30 Hz with field stimulation using short duration pulses. […] Traces are shown before addition tubocurarine, after 40 min with tubocurarine, and after 110 min tubocurarine. […] This recovery of force was used in Table 1.
Experiments were performed using rat soleus muscles from either young (4-wk-old) or adult Wistar rats (12-14-week-old). Animal handling, killing and isolation of muscle is described elsewhere All experiments were performed using normal Krebs-Ringer bicarbonate solution (NKR). In solutions with elevated Mg^2+, MgCl^2 was added to NKR-solution causing minor increases in osmolarity and ionic strength. In solutions with elevated K^+, 4 mM NaCl was replaced by 4 mM KCl in the NKR.
In all contraction experiments, isometric force production was determined and force produced during contractions was quantified by measuring the integral of the force response (AUC). Stimulation and force recordings have been described elsewhere. […] In these latter experiments, extracellular recordings of action potentials (M-waves) could be measured without temporal overlap with stimulation artefacts.
The aim was to find compounds that by inhibition of CIC-1 channels can recover nerve-stimulated force under conditions of fatigue including conditions where fatigue is caused by compromised neuromuscular transmission. Neuromuscular transmission dysfunction can develop because of both pre- and/or post-synaptic complications in connection with a disorder or as part of neuromuscular blockade during/after surgery. In the initial series of drug testing, experiments were performed with isolated muscles in the presence of sub-maximal ACh receptor antagonist tubocurarine. Since the inclusion of tubocurarine caused a partial loss of neuromuscular transmission this experiment mimics the conditions in myasthenia gravis and neuromuscular blockade. To mimic conditions with pre-synaptic complication (Lambert Eaton syndrome, motor neuron disorder, polyneuropathy) the intact nerve-muscle preparations were incubated at elevated extracellular Mg^2+, which is known to suppress release of ACh from nerve terminals of motor neurons. […]
For comparison with the muscle only exposed to tubocurarine (grey trace), the two traces have been overlaid. […] For comparison, muscles only exposed to tubocurarine have been included. The dotted line indicates the recovery of force with C8 when compared to the force production before its addition. This value was used in Table 1 for evaluation of the efficacy of the different compounds in recovering force.

[3] = 150 μM compound, % change in AUC compared to AUC before addition, after 40 min in tubocurarine
[4] = % change in AUC compared to AUC before addition, after 40 min in tubocurarine

T2 sequence (P35523 whole entry): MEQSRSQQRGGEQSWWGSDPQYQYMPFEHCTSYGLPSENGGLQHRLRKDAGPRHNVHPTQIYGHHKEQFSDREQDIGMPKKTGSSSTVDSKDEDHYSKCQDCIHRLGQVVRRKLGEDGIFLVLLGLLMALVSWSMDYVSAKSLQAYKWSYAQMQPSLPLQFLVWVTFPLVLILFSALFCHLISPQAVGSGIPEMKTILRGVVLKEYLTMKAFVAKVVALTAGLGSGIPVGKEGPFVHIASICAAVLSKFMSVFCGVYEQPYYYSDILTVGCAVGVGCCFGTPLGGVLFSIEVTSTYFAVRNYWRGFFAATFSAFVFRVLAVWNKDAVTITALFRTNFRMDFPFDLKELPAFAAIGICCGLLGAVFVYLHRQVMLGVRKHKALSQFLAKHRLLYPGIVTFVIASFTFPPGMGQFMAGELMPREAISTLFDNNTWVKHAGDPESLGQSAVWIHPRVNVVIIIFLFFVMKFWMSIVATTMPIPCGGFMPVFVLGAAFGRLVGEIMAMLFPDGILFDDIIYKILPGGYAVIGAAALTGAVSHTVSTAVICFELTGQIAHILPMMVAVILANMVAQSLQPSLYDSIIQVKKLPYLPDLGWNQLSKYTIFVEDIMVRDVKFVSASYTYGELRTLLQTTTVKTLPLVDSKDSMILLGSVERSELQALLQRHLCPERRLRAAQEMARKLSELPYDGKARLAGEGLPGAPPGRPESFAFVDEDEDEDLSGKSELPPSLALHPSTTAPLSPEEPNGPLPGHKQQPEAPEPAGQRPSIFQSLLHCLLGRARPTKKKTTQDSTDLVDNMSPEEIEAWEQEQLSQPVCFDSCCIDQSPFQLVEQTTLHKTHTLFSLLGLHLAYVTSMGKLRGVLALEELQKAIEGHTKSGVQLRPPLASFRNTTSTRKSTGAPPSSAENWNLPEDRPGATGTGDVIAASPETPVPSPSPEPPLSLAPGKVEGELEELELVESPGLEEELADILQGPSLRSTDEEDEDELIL

| Compound | EC50 (CIC-1 channels) | Point increase (%) of initial force that was restored (rat soleus muscles [1]) | 150 μM % change after addition (AUC force) (rat soleus muscles [2]; [3]) | 500 μM % change after addition (AUC force) (rat soleus muscles [2]; [4]) | also measured |
| --- | --- | --- | --- | --- | --- |
| CC[C@H](Oc1ccc(Br)cc1-c1ccon1)C(=O)O [Compound A-2, (2S)-2-[4-bromo-2-(1,2-oxazol-3-yl)phenoxy]butanoic acid] | 4.3 µM | 27% |  |  | Δ1/2 (mV) (human CIC-1 channels): 7.2 mV |
| C[C@H](Oc1ccc(Br)cc1-c1ccon1)C(=O)O [Compound A-16, (2S)-2-[4-bromo-2-(1,2-oxazol-3-yl)phenoxy]propanoic acid] | 1.8 ± 1.1 µM | 48% |  |  | Δ1/2 (mV) (human CIC-1 channels): 14.1 mV |
| C[C@H](Oc1ccc(Cl)cc1-c1csnn1)C(=O)O [Compound A-62, (2S)-2-[4-chloro-2-(1,2,3-thiadiazol-4-yl)phenoxy]propanoic acid] | 9.4 µM | 17% |  |  |  |
| O=C(O)[C@H](CF)Oc1cc(F)c(Br)cc1-c1ccon1 [Compound A-63, (2R)-2-[4-bromo-5-fluoro-2-(1,2-oxazol-3-yl)phenoxy]-3-fluoropropanoic acid] | 10.8 µM | 23% |  |  |  |
| C[C@H](Oc1ccc(Br)cc1-c1nncs1)C(=O)O [Compound A-65, (2S)-2-[4-bromo-2-(1,3,4-thiadiazol-2-yl)phenoxy]propanoic acid] |  |  |  |  | Δ1/2 (mV) (human CIC-1 channels): 12.8 mV |
| O=C(O)COc1ccc(Br)cc1-c1ccno1 [Compound A-69, 2-[4-bromo-2-(1,2-oxazol-5-yl)phenoxy]acetic acid] | 7.8 µM | 15% |  |  |  |
| O=C(O)[C@H](CC1CCC1)Oc1ccc(Br)cc1-c1ccon1 [Compound A-71, (2S)-2-[4-bromo-2-(1,2-oxazol-3-yl)phenoxy]-3-cyclobutylpropanoic acid] | 6.5 µM | 15% |  |  |  |
| C[C@H](Oc1ccc(Cl)cc1-c1ccsn1)C(=O)O [Compound A-83, (2S)-2-[4-chloro-2-(1,2-thiazol-3-yl)phenoxy]propanoic acid] |  |  |  |  | Δ1/2 (mV) (human CIC-1 channels): 10.3 mV |
| C[C@H](OCc1ccccc1)C(=O)O [Compound C5, (2S)-2-(benzyloxy)propanoic acid] |  |  | 1% | 42% |  |
| CC(C(=O)O)S(=O)(=O)c1ccc(F)cc1 (stereo not shown) [Compound C6, 2-(4-fluorobenzenesulfonyl)propanoic acid] |  |  | −8% | 9% |  |
| CCC(Oc1ccc(Cl)cc1)C(=O)O (stereo not shown) [Compound C7, 2-(4-chlorophenoxy)butanoic acid] |  |  | 0% | 40% |  |
| Cl.NCC(Oc1ccc(F)cc1)C(=O)O (stereo not shown) [Compound C9, 3-amino-2-(4-fluorophenoxy)propanoic acid hydrochloride] |  |  | −13% | 5% |  |
| CC(Oc1ccc(Cl)cc1)C(=O)Oc1ccc(Cl)cc1 (stereo not shown) [Compound C11, 4-chlorophenyl 2-(4-chlorophenoxy)propanoate] |  |  |  |  | 50 μM % change after addition (AUC force) (rat soleus muscles [2]): 46%; 150 μM % change after addition (AUC force) (rat soleus muscles [2]): 54% |
| COCC(C)C(Oc1ccc(Br)cc1)C(=O)O (stereo not shown) [Compound C21, 2-(4-bromophenoxy)-4-methoxy-3-methylbutanoic acid] |  |  | 7% | 36% |  |
